From PubChem BioAssay AID2060888 (Molecular Pharmacology Branch, DTP, NCI, 2025) come the findings set out here.

This test relates to 695427-040-R-J1-PDC complex spheroid viability. Description: Anticancer human tumor 695427-040-R-J1-PDC patient-derived colon adenocarcinoma cell line growth inhibition [RAS]. The settings on record: for viability, T/C: stronger effect = lower value. The gist of the method: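 Multi-cell-type spheroids: tumor cells plus HUVEC endothelial cells and mesenchymal stem cells. RAS-pathway inhibitors were combined with targeted agents, each dosed in half-log steps down from clinical Cmax, or from 10 microM when Cmax was unknown.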

[1] abbreviates: curve of first compound, second compound 0.000949 µM.
[2] abbreviates: curve of first compound, second compound 0.003 µM.
Where [3] appears, read: curve of first compound, second compound 0.00949 µM.
[4] abbreviates: curve of first compound, second compound 0.03 µM.
[5] abbreviates: curve of first compound, second compound 0.0949 µM.
Setting [6] is: curve of first compound, second compound 0.3 µM.
Where [7] appears, read: second compound 0.000949 µM, first compound 0.0316 µM.
The mark [8] stands for this setting: second compound 0.000949 µM, first compound 0.1 µM.
Setting [9] is: second compound 0.000949 µM, first compound 0.316 µM.
[10] abbreviates: second compound 0.000949 µM, first compound 1 µM.
Where [11] appears, read: second compound 0.003 µM, first compound 0.0316 µM.
[12] abbreviates: second compound 0.003 µM, first compound 0.1 µM.
[13] abbreviates: second compound 0.003 µM, first compound 0.316 µM.
The mark [14] stands for this setting: second compound 0.003 µM, first compound 1 µM.
The mark [15] stands for this setting: second compound 0.00949 µM, first compound 0.0316 µM.
The mark [16] stands for this setting: second compound 0.00949 µM, first compound 0.1 µM.
The mark [17] stands for this setting: second compound 0.00949 µM, first compound 0.316 µM.
Where [18] appears, read: second compound 0.00949 µM, first compound 1 µM.
[19] abbreviates: second compound 0.03 µM, first compound 0.0316 µM.
Where [20] appears, read: second compound 0.03 µM, first compound 0.1 µM.
The mark [21] stands for this setting: second compound 0.03 µM, first compound 0.316 µM.
The mark [22] stands for this setting: second compound 0.03 µM, first compound 1 µM.
The mark [23] stands for this setting: second compound 0.0949 µM, first compound 0.0316 µM.
Where [24] appears, read: second compound 0.0949 µM, first compound 0.1 µM.
[25] abbreviates: second compound 0.0949 µM, first compound 0.316 µM.
The mark [26] stands for this setting: second compound 0.0949 µM, first compound 1 µM.
[27] abbreviates: second compound 0.3 µM, first compound 0.0316 µM.
Setting [28] is: second compound 0.3 µM, first compound 0.1 µM.
The mark [29] stands for this setting: second compound 0.3 µM, first compound 0.316 µM.
Where [30] appears, read: second compound 0.3 µM, first compound 1 µM.

The structures appear in SMILES notation. “And” between values parts separate entries of the source, which are not always exact repeats. Equal entries are not always repeated.
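Note: viability read after seven days of drug exposure.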
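Throughout, for viability, T/C: 100% = DMSO vehicle control viability.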

Turning to `Nc1ccn(C2OC(CO)C(O)C2(F)F)c(=O)n1` (centres undefined) + CCn1c(-c2cc(N3CCN(C)CC3)cnc2C(C)OC)c2c3cc(ccc31)-c1csc(n1)CC(NC(=O)C1CC1C)C(=O)N1CCCC(N1)C(=O)OCC(C)(C)C2, the IC50 (as a rule, the midpoint of a concentration-inhibition curve) was above 1000 nM under setting [1]; 524 nM under setting [2]; 593 nM under setting [3]; 112 nM under setting [4]; below 3.16 nM under setting [5]; below 3.16 nM under setting [6]. The viability, T/C (commonly the ratio of treated to control) is 69.9% (second compound 0.000949 µM, first compound 0.00316 µM); 97.5% (second compound 0.000949 µM, first compound 0.01 µM); 81.8% under setting [7]; 69.3% under setting [8]; 67% under setting [9]; 54.2% under setting [10]. Moreover, the viability, T/C was 109% (second compound 0.003 µM, first compound 0.00316 µM); 88.6% (second compound 0.003 µM, first compound 0.01 µM); 78.5% under setting [11]; 66.2% under setting [12]; 54.5% under setting [13]; 44.2% under setting [14]. In addition, the viability, T/C reads like this: (second compound 0.00949 µM, first compound 0.00316 µM) 80%; (second compound 0.00949 µM, first compound 0.01 µM) 77.7%; under setting [15], 60.9%; under setting [16], 58.5%; under setting [17], 57.5%; under setting [18], 45.3%. Also, the viability, T/C (second compound 0.03 µM, first compound 0.00316 µM) was 56.4%; the viability, T/C (second compound 0.03 µM, first compound 0.01 µM) is 63.1%; the viability, T/C under setting [19] was 52.2%; the viability, T/C under setting [20] is 47.1%; the viability, T/C under setting [21] was 48.4%; the viability, T/C under setting [22] is 37.5%. Besides, the viability, T/C reads like this: (second compound 0.0949 µM, first compound 0.00316 µM) 42.4%; (second compound 0.0949 µM, first compound 0.01 µM) 47.1%; under setting [23], 40.6%; under setting [24], 36%; under setting [25], 25.7%; under setting [26], 30.1%. Moreover, the viability, T/C by setting is: (second compound 0.3 µM, first compound 0.00316 µM) 34.5%; (second compound 0.3 µM, first compound 0.01 µM) 40.1%; under setting [27], 34.8%; under setting [28], 33.1%; under setting [29], 31.6%; under setting [30], 26.5%.
Regarding `NC1c2ccccc2OC12CCN(c1cnc3c(N4CCCc5ncccc54)n[nH]c3n1)CC2` (centres undefined) + CCn1c(-c2cccnc2C(C)OC)c2c3cc(ccc31)N1CCOC(CC(NC(=O)C(C(C)C)N(C)C(=O)C3(F)CCN(C(=O)C#CC(C)(C)N(C)C)CC3)C(=O)N3CCCC(N3)C(=O)OCC(C)(C)C2)C1, the IC50 reads like this: under setting [1], 914 nM; under setting [2], 1370 nM; under setting [3], 973 nM; under setting [4], 623 nM; under setting [5], 940 nM; under setting [6], 665 nM. Also, the viability, T/C under setting [7] is 80.3%; the viability, T/C under setting [8] was 78.3%; the viability, T/C under setting [9] is 61.7%; the viability, T/C under setting [10] was 49.1%; the viability, T/C (second compound 0.000949 µM, first compound 3.16 µM) was 50.5%; the viability, T/C (second compound 0.000949 µM, first compound 10 µM) is 43.2%. The viability, T/C reads like this: under setting [11], 88.9%; under setting [12], 70.5%; under setting [13], 60.6%; under setting [14], 45.7%; (second compound 0.003 µM, first compound 3.16 µM) 55.7%; (second compound 0.003 µM, first compound 10 µM) 38.6%. Besides, the viability, T/C reads like this: under setting [15], 95.2%; under setting [16], 58.1%; under setting [17], 62.7%; under setting [18], 54.6%; (second compound 0.00949 µM, first compound 3.16 µM) 54.1%; (second compound 0.00949 µM, first compound 10 µM) 32.8%. The viability, T/C runs as follows: under setting [19], 79.3%; under setting [20], 63.4%; under setting [21], 53%; under setting [22], 45.1%; (second compound 0.03 µM, first compound 3.16 µM) 50.6%; (second compound 0.03 µM, first compound 10 µM) 35.3%. For the same molecule, the viability, T/C is 67% under setting [23]; 67.4% under setting [24]; 53.2% under setting [25]; 47.4% under setting [26]; 46.2% (second compound 0.0949 µM, first compound 3.16 µM); 31.7% (second compound 0.0949 µM, first compound 10 µM). Also, the viability, T/C reads like this: under setting [27], 75.3%; under setting [28], 46.4%; under setting [29], 60.4%; under setting [30], 51.8%; (second compound 0.3 µM, first compound 3.16 µM) 38.9%; (second compound 0.3 µM, first compound 10 µM) 27.1%.
Regarding `CC(C)n1nc(-c2ccc3oc(N)nc3c2)c2c(N)ncnc21`, the viability, T/C is 101% [middle of 4 runs] (compound 0.000316 µM); 99.3% [middle of 4 runs] (compound 0.001 µM); 91.7% [middle of 4 runs] (compound 0.00316 µM); 81.6% [middle of 4 runs] (compound 0.01 µM); 73.5% [middle of 4 runs] (compound 0.0316 µM); 61.9% [middle of 4 runs] (compound 0.1 µM). The 50% inhibitory concentration (IC50) (curve of compound) is > 100 nM and 59.9 nM.
For the molecule `Cc1nc(N2CCC3(CC2)COC(C)C3N)c(CO)nc1Sc1ccnc(N)c1Cl` (centres undefined), the viability, T/C was 87% [middle of 4 runs] (compound 0.0316 µM); 85.2% [middle of 4 runs] (compound 0.1 µM); 73.3% [middle of 4 runs] (compound 0.316 µM); 76.3% [middle of 4 runs] (compound 1 µM); 65.7% [middle of 4 runs] (compound 3.16 µM); 59.8% [middle of 4 runs] (compound 10 µM). Under “curve of compound”, the IC50 is above 10000 nM.
With `CC1(O)CCCC1n1c(=O)c(C(F)F)cc2cnc(NC3CCN(S(C)(=O)=O)CC3)nc21` (centres undefined), the viability, T/C is, setting by setting: (compound 0.0316 µM) 93.3% [middle of 4 runs]; (compound 0.1 µM) 98.2% [middle of 4 runs]; (compound 0.316 µM) 104% [middle of 4 runs]; (compound 3.16 µM) 123% (2×) and 107% and 97.5%; (compound 10 µM) 64.5% [middle of 4 runs]. For the same molecule, the half-maximal inhibitory concentration (IC50) (curve of compound) is above 10000 nM.
